These results are taken from ChEMBL document CHEMBL4507317, “Data for DCP probe BAY-899” (2021).

Molecules are shown by their SMILES. pKi: −log10 of the molar value.

The target in experiment [1] is 5-hydroxytryptamine receptor 2C (Homo sapiens, UniProt P28335). Put plainly: GPCRScan assay: inhibition of 5-HT2C. Set-up: radioligand conc. used [nm] 1.0 – 2.5, parental cells HEK T.
Experiment [2] concerns the target Muscarinic acetylcholine receptor M3 (Homo sapiens) (UniProt P20309). The note with it: Compound concentration 10.0 uM.
The target of experiment [3] is Beta-3 adrenergic receptor (Homo sapiens) (UniProt P13945). The note with it: Compound concentration 10.0 uM.
Experiment [4] concerns the target T1, Alpha-2A adrenergic receptor (Homo sapiens) (UniProt P08913).
T1 sequence (whole entry): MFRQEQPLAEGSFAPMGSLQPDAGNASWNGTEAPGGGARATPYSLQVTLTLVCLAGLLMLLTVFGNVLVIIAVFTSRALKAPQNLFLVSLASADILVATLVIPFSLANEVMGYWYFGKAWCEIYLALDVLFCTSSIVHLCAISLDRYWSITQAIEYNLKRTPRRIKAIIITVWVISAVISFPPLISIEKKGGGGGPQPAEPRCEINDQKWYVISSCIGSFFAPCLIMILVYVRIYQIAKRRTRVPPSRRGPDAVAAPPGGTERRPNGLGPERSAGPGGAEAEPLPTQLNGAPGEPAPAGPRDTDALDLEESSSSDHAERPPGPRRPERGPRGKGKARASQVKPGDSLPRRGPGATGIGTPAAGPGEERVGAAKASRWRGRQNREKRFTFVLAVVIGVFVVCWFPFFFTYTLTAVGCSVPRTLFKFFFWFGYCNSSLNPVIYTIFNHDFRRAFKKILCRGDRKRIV
Put plainly: alpha 2A Eurofins Bayer panel. The note with it: Compound concentration 10.0 uM.

Experiment [5] concerns the target T2, Alpha-1A adrenergic receptor (Homo sapiens) (UniProt P35348).
T2 sequence (whole entry): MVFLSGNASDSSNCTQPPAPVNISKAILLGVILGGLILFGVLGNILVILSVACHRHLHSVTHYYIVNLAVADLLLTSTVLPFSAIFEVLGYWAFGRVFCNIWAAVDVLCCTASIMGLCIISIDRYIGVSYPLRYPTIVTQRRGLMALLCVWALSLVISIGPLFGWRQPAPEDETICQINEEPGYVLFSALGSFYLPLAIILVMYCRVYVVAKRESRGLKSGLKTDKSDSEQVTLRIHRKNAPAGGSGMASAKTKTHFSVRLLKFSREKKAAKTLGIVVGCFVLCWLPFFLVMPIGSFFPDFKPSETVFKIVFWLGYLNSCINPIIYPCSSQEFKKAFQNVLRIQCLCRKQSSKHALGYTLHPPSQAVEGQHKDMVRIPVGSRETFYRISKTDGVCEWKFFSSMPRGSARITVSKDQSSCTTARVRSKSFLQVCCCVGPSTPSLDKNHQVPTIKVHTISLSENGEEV
Description: alpha 1A Eurofins Bayer panel. The settings on record: Compound concentration 10.0 uM.

Experiment [6] concerns the target Melanocortin receptor 4 (Homo sapiens) (UniProt P32245). Put plainly: MC4 Eurofins Bayer panel. The settings on record: Compound concentration 10.0 uM.
The test system of experiment [7] is Receptor-type tyrosine-protein kinase FLT3 (Homo sapiens), P36888 [K663Q]. The note with it: Compound concentration 1000.0 nM.
Experiment [8] has as its target 5-hydroxytryptamine receptor 7 (Homo sapiens) (UniProt P34969). The settings on record: Compound concentration 10.0 uM.
Experiment [9] has as its target Adenosine receptor A3 (Homo sapiens) (UniProt P0DMS8). Description: A3 Eurofins Bayer panel. The note with it: Compound concentration 10.0 uM.

Melanocortin receptor 4 (Homo sapiens), sequence (P32245 whole entry): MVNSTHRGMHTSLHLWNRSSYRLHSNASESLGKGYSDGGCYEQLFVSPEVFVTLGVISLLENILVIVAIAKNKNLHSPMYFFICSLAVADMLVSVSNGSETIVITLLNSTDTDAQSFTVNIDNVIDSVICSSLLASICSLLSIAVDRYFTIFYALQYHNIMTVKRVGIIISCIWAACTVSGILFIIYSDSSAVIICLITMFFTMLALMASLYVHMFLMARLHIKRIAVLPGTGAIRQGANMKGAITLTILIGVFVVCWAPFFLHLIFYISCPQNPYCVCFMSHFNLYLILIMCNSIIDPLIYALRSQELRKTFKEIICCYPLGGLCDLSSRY
Adenosine receptor A3 (Homo sapiens), sequence (P0DMS8 whole entry): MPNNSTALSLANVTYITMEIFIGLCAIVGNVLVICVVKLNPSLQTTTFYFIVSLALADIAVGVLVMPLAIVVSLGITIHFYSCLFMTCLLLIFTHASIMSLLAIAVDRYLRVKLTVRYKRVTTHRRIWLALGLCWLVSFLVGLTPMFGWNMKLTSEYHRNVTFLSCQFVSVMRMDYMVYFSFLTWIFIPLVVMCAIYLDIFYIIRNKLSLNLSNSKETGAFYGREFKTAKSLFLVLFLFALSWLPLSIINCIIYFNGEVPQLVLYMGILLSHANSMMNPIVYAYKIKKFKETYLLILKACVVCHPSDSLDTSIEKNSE
5-hydroxytryptamine receptor 2C, sequence (P28335 whole entry): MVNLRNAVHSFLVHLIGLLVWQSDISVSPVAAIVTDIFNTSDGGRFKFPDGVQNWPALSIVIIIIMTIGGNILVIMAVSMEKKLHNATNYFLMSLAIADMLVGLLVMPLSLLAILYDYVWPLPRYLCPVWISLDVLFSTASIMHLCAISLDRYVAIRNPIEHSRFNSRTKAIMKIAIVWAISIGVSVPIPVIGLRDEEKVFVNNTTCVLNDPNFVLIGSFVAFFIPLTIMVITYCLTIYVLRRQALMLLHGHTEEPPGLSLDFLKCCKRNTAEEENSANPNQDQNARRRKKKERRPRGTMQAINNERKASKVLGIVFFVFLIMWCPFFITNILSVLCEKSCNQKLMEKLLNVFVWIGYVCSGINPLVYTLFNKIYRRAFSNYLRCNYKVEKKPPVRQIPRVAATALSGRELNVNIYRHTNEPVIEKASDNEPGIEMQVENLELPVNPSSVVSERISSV
Muscarinic acetylcholine receptor M3 (Homo sapiens), sequence (P20309 whole entry, looked up): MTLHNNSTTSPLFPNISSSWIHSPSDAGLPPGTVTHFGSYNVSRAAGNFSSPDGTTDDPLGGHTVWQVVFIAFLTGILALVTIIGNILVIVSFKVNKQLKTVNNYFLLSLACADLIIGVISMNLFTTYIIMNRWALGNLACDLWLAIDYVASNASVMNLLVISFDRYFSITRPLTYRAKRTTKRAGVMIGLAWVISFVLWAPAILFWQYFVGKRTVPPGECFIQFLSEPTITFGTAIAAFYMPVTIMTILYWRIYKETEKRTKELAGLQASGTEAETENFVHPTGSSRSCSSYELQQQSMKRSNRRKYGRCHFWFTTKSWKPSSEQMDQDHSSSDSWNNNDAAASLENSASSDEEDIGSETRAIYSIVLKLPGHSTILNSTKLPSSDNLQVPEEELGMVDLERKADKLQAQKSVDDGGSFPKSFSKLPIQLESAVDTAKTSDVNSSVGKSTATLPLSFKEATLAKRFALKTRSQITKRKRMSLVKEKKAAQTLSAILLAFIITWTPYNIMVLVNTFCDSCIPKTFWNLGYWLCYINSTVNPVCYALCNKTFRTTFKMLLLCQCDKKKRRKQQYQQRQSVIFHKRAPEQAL
5-hydroxytryptamine receptor 7 (Homo sapiens), sequence (P34969 whole entry): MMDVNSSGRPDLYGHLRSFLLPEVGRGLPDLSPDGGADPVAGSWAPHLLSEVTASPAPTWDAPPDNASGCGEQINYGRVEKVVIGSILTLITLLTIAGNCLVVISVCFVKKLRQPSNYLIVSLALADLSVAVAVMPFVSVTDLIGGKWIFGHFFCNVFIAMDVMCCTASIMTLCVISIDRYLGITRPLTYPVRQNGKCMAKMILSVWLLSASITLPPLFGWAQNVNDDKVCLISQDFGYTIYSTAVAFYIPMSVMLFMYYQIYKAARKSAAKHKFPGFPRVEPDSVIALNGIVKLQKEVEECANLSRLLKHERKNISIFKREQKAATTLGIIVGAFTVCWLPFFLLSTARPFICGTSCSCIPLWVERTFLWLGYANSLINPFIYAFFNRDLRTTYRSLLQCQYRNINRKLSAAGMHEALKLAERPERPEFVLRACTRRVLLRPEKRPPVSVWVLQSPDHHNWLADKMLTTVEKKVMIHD
Beta-3 adrenergic receptor (Homo sapiens), sequence (P13945 whole entry, looked up): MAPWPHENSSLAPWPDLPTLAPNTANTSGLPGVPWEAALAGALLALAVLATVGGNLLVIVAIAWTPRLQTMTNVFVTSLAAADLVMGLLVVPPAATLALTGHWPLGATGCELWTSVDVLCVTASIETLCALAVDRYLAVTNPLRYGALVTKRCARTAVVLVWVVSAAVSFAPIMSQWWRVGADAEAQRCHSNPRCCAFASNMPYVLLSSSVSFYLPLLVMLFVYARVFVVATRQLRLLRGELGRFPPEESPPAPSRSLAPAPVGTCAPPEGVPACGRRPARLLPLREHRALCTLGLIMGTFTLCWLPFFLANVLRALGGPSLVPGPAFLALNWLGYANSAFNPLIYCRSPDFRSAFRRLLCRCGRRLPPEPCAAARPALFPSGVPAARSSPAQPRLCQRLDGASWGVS

For `O=C(Nc1ccc(Oc2ccc(F)cc2)cc1)N1CCc2ncccc2[C@H]1c1ccc(F)cc1` [BAY-897], in experiment [1], the pKi is 5.97. The values for the inhibition in [2] and in experiment [3] were -3.47% and 29.4%, respectively.
Turning to `O=C(Nc1cnc(Oc2ccc(F)cc2)nc1)N1CCc2ncccc2[C@@H]1c1ccc(F)cc1` [BAY-899], the Activation (% of control) is -2% in experiment [4], 2% in experiment [5], -2% in experiment [6] and 25% in [9]. Also, the Inhibition (% of control) in [4] was -16%; in experiment [5], 45%; in experiment [6], 11%; in experiment [9], -6%. For the same molecule, the residual activity in [7] is 100%. Moreover, the inhibition in experiment [8] is 2.63%.
